# Measured values published in the supplement of paper PMC10307832.
# Tests used:
# Assay in all cases: relative viability (nuclei count vs DMSO), 5 days (fraction); higher = more cells survive
# R406 + Olaparib = compound: COc1cc(Nc2ncc(F)c(Nc3ccc4c(n3)NC(=O)C(C)(C)O4)n2)cc(OC)c1OC [R406] + O=C(c1cc(Cc2n[nH]c(=O)c3ccccc23)ccc1F)N1CCN(C(=O)C2CC2)CC1 [Olaparib] (partner 8 µM)
# In short: (§1)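 Lung cancer cell lines were pin-tool dosed in 1536-well plates on the day after seeding, with either a lone drug or a fixed anchor-drug dose plus five library-drug doses (not always all listed) in √10 steps. Nuclei were counted on 4× images after 5 days. Relative viability is the ratio of treated-well to vehicle-well nuclei counts, with each value a median of duplicate plates.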
# Daporinad + Trametinib = compound: O=C(/C=C/c1cccnc1)NCCCCC1CCN(C(=O)c2ccccc2)CC1 [Daporinad] + CC(=O)Nc1cccc(-n2c(=O)n(C3CC3)c(=O)c3c(Nc4ccc(I)cc4F)n(C)c(=O)c(C)c32)c1 [Trametinib] (partner 0.02 µM)
# In short: as §1
# Daporinad + OSI-027 = compound: O=C(/C=C/c1cccnc1)NCCCCC1CCN(C(=O)c2ccccc2)CC1 [Daporinad] + COc1cccc2cc(-c3nc([C@H]4CC[C@H](C(=O)O)CC4)n4ncnc(N)c34)[nH]c12 [OSI-027] (partner 0.5 µM)
# In short: as §1
# Daporinad + Crizotinib = compound: O=C(/C=C/c1cccnc1)NCCCCC1CCN(C(=O)c2ccccc2)CC1 [Daporinad] + C[C@@H](Oc1cc(-c2cnn(C3CCNCC3)c2)cnc1N)c1c(Cl)ccc(F)c1Cl [Crizotinib] (partner 1 µM)
# In short: as §1
Cell Line,relative viability (R406 + Olaparib; first compound 0.08 µM),relative viability (R406 + Olaparib; first compound 0.253 µM),relative viability (R406 + Olaparib; first compound 0.8 µM),relative viability (R406 + Olaparib; first compound 2.53 µM),relative viability (R406 + Olaparib; first compound 8 µM),relative viability (Daporinad + Trametinib; first compound 0.0005 µM),relative viability (Daporinad + Trametinib; first compound 0.001581 µM),relative viability (Daporinad + Trametinib; first compound 0.005 µM),relative viability (Daporinad + Trametinib; first compound 0.01581 µM),relative viability (Daporinad + OSI-027; first compound 0.0005 µM),relative viability (Daporinad + OSI-027; first compound 0.001581 µM),relative viability (Daporinad + OSI-027; first compound 0.005 µM),relative viability (Daporinad + OSI-027; first compound 0.01581 µM),relative viability (Daporinad + Crizotinib; first compound 0.0005 µM),relative viability (Daporinad + Crizotinib; first compound 0.001581 µM),relative viability (Daporinad + Crizotinib; first compound 0.005 µM),relative viability (Daporinad + Crizotinib; first compound 0.01581 µM)
NCI-H1944,0.35,0.382,0.38,0.361,0.328,0.449,0.464,0.469,0.399,0.447,0.422,0.527,0.517,1.16,1.13,1.24,1.18
NCI-H1975,0.706,0.862,0.783,0.311,0.204,0.329,0.286,0.341,0.454,0.753,0.738,0.8,0.672,0.996,0.899,1.12,0.881
NCI-H1993,1.14,1.02,1.07,0.992,0.918,0.485,0.514,0.633,0.555,0.618,0.508,0.55,0.542,0.954,0.941,1.01,1.08
NCI-H2009,0.687,0.706,0.844,0.489,0.546,0.261,0.35,0.315,0.31,0.599,0.739,0.614,0.381,1.02,1.04,1.06,0.827
NCI-H2023,0.437,0.49,0.474,0.4,0.163,0.605,0.523,0.539,0.621,0.35,0.458,0.395,0.455,0.612,0.595,0.631,0.59
NCI-H2085,0.79,0.823,0.788,0.738,0.458,0.515,,0.653,0.538,0.695,0.773,0.817,0.852,0.874,0.825,0.868,0.841
NCI-H2087,0.558,0.581,0.739,0.488,0.32,0.18,0.213,0.263,0.22,0.474,0.693,0.694,0.538,0.75,0.708,0.945,0.674
NCI-H2126,0.933,0.943,0.933,0.855,0.557,0.562,0.548,0.604,0.587,0.718,0.592,0.689,0.756,1.06,1.03,1.09,1.01
NCI-H2170,0.63,0.573,0.648,0.44,0.488,0.789,0.943,0.84,0.948,0.66,0.734,0.793,0.699,1.19,0.723,1.2,1.27
NCI-H2228,0.487,0.731,0.848,0.341,0.238,0.439,0.18,0.576,0.531,0.561,0.552,0.915,0.731,0.505,0.548,0.625,0.636
